One assay has as its target T1, Estrogen receptor (Homo sapiens, UniProt P03372).
T1 sequence (P03372 whole entry): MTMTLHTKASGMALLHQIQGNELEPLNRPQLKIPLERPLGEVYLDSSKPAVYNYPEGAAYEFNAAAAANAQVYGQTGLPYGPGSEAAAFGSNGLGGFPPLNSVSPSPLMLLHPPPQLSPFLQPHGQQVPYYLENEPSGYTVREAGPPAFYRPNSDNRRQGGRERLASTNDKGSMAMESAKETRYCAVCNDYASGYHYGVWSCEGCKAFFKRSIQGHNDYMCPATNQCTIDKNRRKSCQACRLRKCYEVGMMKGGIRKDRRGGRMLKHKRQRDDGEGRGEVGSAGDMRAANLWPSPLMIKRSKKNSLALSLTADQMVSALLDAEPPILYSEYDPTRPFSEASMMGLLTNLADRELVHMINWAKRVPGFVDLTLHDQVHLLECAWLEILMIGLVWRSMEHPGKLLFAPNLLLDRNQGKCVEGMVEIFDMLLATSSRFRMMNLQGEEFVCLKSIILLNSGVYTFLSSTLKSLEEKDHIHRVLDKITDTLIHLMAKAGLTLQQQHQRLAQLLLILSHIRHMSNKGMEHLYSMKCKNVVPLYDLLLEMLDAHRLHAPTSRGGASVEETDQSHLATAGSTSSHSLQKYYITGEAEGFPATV

The target of assay [1] is Voltage-dependent N-type calcium channel subunit alpha-1B (Rattus norvegicus, UniProt Q02294). In kind it is functional.
Voltage-dependent N-type calcium channel subunit alpha-1B, sequence (Q02294 whole entry): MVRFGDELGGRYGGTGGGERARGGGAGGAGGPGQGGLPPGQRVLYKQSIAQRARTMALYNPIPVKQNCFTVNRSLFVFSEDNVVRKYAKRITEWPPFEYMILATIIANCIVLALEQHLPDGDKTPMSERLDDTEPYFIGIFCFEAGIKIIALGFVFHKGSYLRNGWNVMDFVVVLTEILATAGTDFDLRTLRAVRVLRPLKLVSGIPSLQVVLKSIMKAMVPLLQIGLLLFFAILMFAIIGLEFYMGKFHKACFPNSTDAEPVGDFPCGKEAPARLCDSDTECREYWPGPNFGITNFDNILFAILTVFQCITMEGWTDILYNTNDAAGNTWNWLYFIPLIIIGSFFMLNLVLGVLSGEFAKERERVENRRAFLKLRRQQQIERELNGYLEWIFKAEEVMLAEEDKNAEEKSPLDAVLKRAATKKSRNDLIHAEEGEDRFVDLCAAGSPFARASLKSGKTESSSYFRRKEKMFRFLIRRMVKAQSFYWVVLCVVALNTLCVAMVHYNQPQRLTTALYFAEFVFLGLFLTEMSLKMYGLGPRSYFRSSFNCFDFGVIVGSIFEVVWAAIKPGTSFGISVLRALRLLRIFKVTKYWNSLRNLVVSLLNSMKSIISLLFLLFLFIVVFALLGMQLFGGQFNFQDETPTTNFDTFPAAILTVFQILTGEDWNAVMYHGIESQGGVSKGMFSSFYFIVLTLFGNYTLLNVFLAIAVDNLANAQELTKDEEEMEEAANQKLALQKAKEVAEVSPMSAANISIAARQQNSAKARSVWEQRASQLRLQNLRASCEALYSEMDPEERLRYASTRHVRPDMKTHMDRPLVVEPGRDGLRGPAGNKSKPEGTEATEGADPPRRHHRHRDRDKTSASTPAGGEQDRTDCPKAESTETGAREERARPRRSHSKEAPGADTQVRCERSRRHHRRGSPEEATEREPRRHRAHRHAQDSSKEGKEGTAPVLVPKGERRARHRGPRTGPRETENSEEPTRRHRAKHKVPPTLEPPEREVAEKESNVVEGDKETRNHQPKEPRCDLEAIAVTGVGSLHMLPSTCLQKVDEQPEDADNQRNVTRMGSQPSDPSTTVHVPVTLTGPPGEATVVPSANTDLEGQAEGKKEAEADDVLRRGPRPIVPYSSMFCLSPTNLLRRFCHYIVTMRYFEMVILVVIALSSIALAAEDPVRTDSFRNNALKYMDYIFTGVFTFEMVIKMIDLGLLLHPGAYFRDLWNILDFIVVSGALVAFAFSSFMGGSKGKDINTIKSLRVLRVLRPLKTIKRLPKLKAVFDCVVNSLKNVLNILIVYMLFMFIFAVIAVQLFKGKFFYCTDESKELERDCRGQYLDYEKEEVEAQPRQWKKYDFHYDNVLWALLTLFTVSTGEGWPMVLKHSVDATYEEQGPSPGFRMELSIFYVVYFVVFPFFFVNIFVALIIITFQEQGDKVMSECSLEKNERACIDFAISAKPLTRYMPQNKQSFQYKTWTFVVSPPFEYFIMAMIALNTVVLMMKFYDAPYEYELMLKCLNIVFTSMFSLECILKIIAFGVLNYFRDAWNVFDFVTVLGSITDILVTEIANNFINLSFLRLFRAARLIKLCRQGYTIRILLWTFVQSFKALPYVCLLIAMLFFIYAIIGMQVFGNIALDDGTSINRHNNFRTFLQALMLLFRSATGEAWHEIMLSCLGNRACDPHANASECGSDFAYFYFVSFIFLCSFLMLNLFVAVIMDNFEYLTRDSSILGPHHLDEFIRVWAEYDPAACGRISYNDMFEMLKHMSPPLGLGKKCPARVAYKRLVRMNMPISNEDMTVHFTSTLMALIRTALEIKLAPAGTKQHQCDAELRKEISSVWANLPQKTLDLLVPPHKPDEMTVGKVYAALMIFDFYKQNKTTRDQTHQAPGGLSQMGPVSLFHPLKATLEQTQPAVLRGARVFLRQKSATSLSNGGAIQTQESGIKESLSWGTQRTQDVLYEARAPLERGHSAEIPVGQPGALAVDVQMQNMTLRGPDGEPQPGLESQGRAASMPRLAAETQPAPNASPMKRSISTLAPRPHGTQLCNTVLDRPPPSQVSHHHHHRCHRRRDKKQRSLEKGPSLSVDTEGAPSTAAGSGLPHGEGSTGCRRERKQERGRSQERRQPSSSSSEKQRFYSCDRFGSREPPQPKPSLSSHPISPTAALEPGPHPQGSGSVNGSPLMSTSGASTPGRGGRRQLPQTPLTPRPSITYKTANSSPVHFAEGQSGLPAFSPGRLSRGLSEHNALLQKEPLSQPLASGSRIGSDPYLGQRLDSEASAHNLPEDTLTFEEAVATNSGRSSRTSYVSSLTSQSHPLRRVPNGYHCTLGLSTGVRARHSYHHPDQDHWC
Assay [2] addresses T2, Corticotropin-releasing factor receptor 2 (Homo sapiens, UniProt Q13324).
T2 sequence (Q13324 whole entry): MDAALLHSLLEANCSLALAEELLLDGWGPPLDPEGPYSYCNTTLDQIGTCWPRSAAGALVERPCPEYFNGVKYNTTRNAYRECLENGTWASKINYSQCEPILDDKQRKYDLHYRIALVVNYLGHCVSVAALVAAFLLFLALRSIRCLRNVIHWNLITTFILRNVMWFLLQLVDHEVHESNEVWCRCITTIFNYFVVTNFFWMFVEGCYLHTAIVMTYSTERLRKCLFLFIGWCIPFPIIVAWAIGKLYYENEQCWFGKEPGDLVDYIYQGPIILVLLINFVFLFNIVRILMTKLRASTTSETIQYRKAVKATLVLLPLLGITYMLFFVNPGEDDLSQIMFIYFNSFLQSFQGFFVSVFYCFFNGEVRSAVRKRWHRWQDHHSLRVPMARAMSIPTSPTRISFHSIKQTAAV

The target in a further assay is Histamine H1 receptor (Homo sapiens, UniProt P35367).
Histamine H1 receptor, sequence (P35367 whole entry): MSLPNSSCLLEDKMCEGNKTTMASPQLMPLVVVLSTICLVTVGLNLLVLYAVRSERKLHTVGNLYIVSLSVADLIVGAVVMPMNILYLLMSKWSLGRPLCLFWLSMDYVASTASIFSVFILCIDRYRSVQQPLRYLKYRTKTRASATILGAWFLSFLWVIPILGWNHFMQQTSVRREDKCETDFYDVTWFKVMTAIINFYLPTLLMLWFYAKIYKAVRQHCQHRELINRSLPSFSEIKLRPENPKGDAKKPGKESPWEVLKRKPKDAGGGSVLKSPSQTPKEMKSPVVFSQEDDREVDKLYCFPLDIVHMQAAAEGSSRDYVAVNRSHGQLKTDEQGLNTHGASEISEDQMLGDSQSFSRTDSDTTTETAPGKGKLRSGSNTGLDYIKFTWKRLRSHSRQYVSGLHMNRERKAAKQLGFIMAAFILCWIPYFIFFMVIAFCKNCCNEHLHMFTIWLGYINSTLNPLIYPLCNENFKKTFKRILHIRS
Assay [3] concerns the target T3, Alpha-2B adrenergic receptor (Homo sapiens, UniProt P18089).
T3 sequence (P18089 whole entry): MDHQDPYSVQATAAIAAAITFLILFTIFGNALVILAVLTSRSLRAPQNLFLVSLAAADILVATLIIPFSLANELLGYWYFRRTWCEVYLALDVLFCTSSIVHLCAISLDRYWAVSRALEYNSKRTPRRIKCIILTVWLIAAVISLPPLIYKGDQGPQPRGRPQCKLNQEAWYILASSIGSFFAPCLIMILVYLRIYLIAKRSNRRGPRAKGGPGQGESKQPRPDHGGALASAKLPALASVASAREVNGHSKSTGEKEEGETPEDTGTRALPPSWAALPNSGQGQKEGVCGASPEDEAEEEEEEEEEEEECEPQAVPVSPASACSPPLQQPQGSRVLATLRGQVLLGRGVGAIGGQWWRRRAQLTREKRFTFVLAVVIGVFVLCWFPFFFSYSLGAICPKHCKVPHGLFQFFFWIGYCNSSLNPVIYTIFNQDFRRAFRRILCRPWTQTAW

For another assay, the target named is T4, Glucocorticoid receptor (Homo sapiens, UniProt P04150).
T4 sequence (P04150 whole entry): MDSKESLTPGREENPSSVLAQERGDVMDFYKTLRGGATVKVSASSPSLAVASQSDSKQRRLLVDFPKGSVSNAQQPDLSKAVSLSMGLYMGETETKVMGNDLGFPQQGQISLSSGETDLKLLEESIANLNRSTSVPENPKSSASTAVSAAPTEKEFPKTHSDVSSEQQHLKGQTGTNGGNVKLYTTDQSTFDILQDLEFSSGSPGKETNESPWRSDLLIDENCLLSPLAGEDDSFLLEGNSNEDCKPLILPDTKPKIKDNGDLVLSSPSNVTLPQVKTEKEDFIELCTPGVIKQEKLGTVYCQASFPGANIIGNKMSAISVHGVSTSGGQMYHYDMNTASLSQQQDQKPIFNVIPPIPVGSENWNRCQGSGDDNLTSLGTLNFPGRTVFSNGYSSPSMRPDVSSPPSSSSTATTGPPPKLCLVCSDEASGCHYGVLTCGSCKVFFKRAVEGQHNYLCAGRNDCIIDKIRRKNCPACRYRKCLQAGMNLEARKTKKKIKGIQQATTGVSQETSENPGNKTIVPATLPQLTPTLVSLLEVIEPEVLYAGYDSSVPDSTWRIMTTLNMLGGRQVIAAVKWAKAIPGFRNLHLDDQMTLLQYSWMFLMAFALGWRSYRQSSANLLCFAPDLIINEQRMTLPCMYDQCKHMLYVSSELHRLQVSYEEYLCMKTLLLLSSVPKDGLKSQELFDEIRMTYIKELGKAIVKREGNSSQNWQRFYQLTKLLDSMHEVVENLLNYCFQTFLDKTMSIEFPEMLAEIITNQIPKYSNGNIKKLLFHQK
Type of assay: functional.

Assay [4] has as its target T5, Peroxisome proliferator-activated receptor gamma (Homo sapiens, UniProt P37231).
T5 sequence (P37231 whole entry): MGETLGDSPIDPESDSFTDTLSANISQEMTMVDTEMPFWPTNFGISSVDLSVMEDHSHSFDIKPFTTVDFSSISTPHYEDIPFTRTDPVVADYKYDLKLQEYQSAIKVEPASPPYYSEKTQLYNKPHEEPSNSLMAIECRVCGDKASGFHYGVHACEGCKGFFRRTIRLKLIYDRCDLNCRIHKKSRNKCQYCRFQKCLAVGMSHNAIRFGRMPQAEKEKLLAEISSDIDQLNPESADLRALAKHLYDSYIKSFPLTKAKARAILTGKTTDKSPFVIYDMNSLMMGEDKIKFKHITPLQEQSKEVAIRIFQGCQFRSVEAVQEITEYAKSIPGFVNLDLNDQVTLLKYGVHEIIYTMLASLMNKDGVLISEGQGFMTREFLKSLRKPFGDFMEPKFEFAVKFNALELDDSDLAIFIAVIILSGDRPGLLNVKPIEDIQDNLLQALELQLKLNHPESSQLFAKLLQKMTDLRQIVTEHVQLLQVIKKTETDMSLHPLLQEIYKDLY
Type of assay: functional.
Note: assay procedure not described here.

For the compound `CC(/C=C1\SC(=S)N(CC(=O)O)C1=O)=C\c1ccccc1`, the AC50 (in general, the concentration giving half of the maximal activity seen) at Estrogen receptor was above 30 µM.
`CC1(C)S[C@@H]2[C@H](NC(=O)[C@H](N)c3ccc(O)cc3)C(=O)N2[C@H]1C(=O)O` [AMOXICILLIN]: the figures for the concentration at half-maximal activity (AC50) in assay [1] and in assay [2] were above 10 µM and above 30 µM, respectively.
With `O=C1CN2Cc3c(ccc(Cl)c3Cl)N=C2N1` [ANAGRELIDE], the AC50 on Estrogen receptor was above 30 µM; at Histamine H1 receptor it was above 10 µM; in assay [3], above 10 µM.
Take `CNCC[C@@H](Oc1ccccc1C)c1ccccc1` [ATOMOXETINE]: the figures for the AC50 (on Estrogen receptor; in assay [3]) were above 30 µM and 23 µM, respectively.
Turning to `CCc1oc2ccccc2c1C(=O)c1cc(Br)c(O)c(Br)c1` [BENZBROMARONE], the half-maximal activity concentration (AC50) on Estrogen receptor and on Glucocorticoid receptor was above 30 µM each time.
For `C=C(C)[C@@H]1CCC(C)=C[C@H]1c1c(O)cc(CCCCC)cc1O` [CANNABIDIOL], the AC50 (on Histamine H1 receptor; on Glucocorticoid receptor; in assay [3]) was above 30 µM in each case.
For `CO/N=C(\C(=O)N[C@@H]1C(=O)N2C(C(=O)O)=C(COC(N)=O)CS[C@H]12)c1ccco1` [CEFUROXIME], the concentration at half-maximal activity (AC50) (at Histamine H1 receptor; in assay [4]; in assay [3]) was above 30 µM in each case.
With `[H]/N=C(\N/C(=N/[H])NCCCCCCNC(=N)NC(=N)Nc1ccc(Cl)cc1)Nc1ccc(Cl)cc1` [CHLORHEXIDINE], the AC50 is above 30 µM on Estrogen receptor, above 10 µM on Histamine H1 receptor and 2.4 µM in assay [3].
As to `Clc1cccc(Cl)c1N=C1NCCN1` [CLONIDINE], the values for the AC50 in assay [1] and in assay [2] were above 10 µM and above 30 µM, respectively.
Take `CN1C[C@H](C(=O)N[C@]2(C)O[C@@]3(O)[C@@H]4CCCN4C(=O)[C@H](Cc4ccccc4)N3C2=O)C[C@@H]2c3cccc4[nH]cc(c34)C[C@H]21` [DIHYDROERGOTAMINE]: the AC50 at Estrogen receptor was above 30 µM; in assay [1], above 10 µM; in assay [2] it was above 30 µM.
Turning to `CNCC[C@H](Oc1cccc2ccccc12)c1cccs1` [DULOXETINE], the AC50 on Histamine H1 receptor came out at 8.8 µM; in assay [3], 3.9 µM.
For the compound `CC1(C)O[C@@H]2C[C@H]3[C@@H]4C[C@H](F)C5=CC(=O)C=C[C@]5(C)[C@H]4[C@@H](O)C[C@]3(C)[C@]2(C(=O)CO)O1` [FLUNISOLIDE], the half-maximal activity concentration (AC50) in assay [4] is above 30 µM; on Glucocorticoid receptor it was 0.021 µM.
Regarding `CCC(=O)O[C@@H](O[P@](=O)(CCCCc1ccccc1)CC(=O)N1C[C@H](C2CCCCC2)C[C@H]1C(=O)O)C(C)C` [FOSINOPRIL], the AC50 (at Histamine H1 receptor; in assay [3]) was above 30 µM throughout.
On Estrogen receptor, `Nc1nc(O)c2ncn(COC(CO)CO)c2n1` [GANCICLOVIR] showed a concentration at half-maximal activity (AC50) above 30 µM.
On to `Cc1cnc(NC(=O)C2=C(O)c3ccccc3S(=O)(=O)N2C)s1` [MELOXICAM], for which the half-maximal activity concentration (AC50) on Estrogen receptor is above 30 µM; in assay [1], above 10 µM; in assay [2], above 30 µM.
Consider `CC(=O)/N=c1/sc(S(N)(=O)=O)nn1C` [METHAZOLAMIDE], for which the half-maximal activity concentration (AC50) (on Estrogen receptor; on Histamine H1 receptor; in assay [3]) was above 10 µM in each case.
Compound `CC[C@@H](CO)NC(=O)[C@@H]1C=C2c3cccc4[nH]cc(c34)C[C@H]2N(C)C1` [METHYLERGONOVINE] displayed an AC50 on Estrogen receptor above 30 µM.
As to `CC(=O)Oc1ccccc1C(=O)Nc1ncc([N+](=O)[O-])s1` [NITAZOXANIDE], the figures for the concentration at half-maximal activity (AC50) (on Estrogen receptor; on Histamine H1 receptor; in assay [3]) were above 30 µM, above 30 µM and 8 µM, respectively.
`CNCCC=C1c2ccccc2CCc2ccccc21` [NORTRIPTYLINE]: the AC50 at Estrogen receptor is above 30 µM.
As for `CN(C)c1cc(CNCC(C)(C)C)c(O)c2c1C[C@H]1C[C@H]3[C@H](N(C)C)C(O)=C(C(N)=O)C(=O)[C@@]3(O)C(O)=C1C2=O` [OMADACYCLINE], the AC50 at Estrogen receptor was above 30 µM; on Histamine H1 receptor, above 30 µM; in assay [4], above 30 µM; in assay [3], 30 µM.
For `COc1ccnc(C[S+]([O-])c2nc3ccc(OC(F)F)cc3[nH]2)c1OC` (stereo not drawn) [PANTOPRAZOLE], the figures for the AC50 (on Estrogen receptor; in assay [1]; in assay [2]) were above 30 µM, above 10 µM and above 30 µM, respectively.
On to `CNC[C@H](O)c1cccc(O)c1` [PHENYLEPHRINE], for which the AC50 was above 10 µM at Histamine H1 receptor, above 10 µM in assay [1] and above 30 µM in assay [2].
As to `CNC(=O)c1cc(Oc2ccc(NC(=O)Nc3ccc(Cl)c(C(F)(F)F)c3)c(F)c2)ccn1` [REGORAFENIB], the concentration at half-maximal activity (AC50) at Histamine H1 receptor and on Glucocorticoid receptor was above 30 µM each time.
In the case of `O=C(Nc1c(Cl)cncc1Cl)c1ccc(OC(F)F)c(OCC2CC2)c1` [ROFLUMILAST], the AC50 (at Estrogen receptor; at Histamine H1 receptor; in assay [3]) was above 30 µM each time.
Regarding `CC(C)N(CCCCOCC(=O)NS(C)(=O)=O)c1cnc(-c2ccccc2)c(-c2ccccc2)n1` [SELEXIPAG], the AC50 (on Estrogen receptor; at Histamine H1 receptor; in assay [3]) was above 30 µM in each case.
In the case of `CCCCNc1ccc(C(=O)OCCN(C)C)cc1` [TETRACAINE], the concentration at half-maximal activity (AC50) is above 10 µM in assay [1] and above 30 µM in assay [2].
Consider `Cn1c(=O)c2[nH]cnc2n(C)c1=O` [THEOPHYLLINE], for which the figures for the AC50 in assay [1] and in assay [2] were above 10 µM and above 30 µM, respectively.
As for `CN1CCN(CCCN2c3ccccc3Sc3ccc(S(=O)(=O)N(C)C)cc32)CC1` [THIOPROPERAZINE], the AC50 at Histamine H1 receptor was determined as 0.33 µM; in assay [3] it was 0.15 µM.
Consider `CC1(C)O[C@@H]2[C@@H](CO[C@@]3(COS(N)(=O)=O)OC(C)(C)O[C@@H]23)O1` [TOPIRAMATE], for which the AC50 on Estrogen receptor is above 30 µM; at Histamine H1 receptor it was above 10 µM; in assay [1] it was above 10 µM; in assay [2], above 30 µM; in assay [3] it was above 10 µM.
With `Cc1cc(CC(=O)O)n(C)c1C(=O)c1ccc(Cl)cc1` [ZOMEPIRAC], the AC50 (at Histamine H1 receptor; in assay [3]) was above 30 µM each time.

The values are drawn from ChEMBL document CHEMBL5291721, “A preclinical secondary pharmacology resource illuminates target-adverse drug reaction associations of marketed drugs” (Nat Commun, 2023).
